Data published in article PMC2713098 (Nuclear medicine and biology, 2009).
“Also recorded” adds a separate entry of the source. Read-outs that look alike come from different tables or passages of the source.

Legend:
[1] = molecular target: T1, rat A3AR (Rattus norvegicus, UniProt P28647); experiment: Competitive radioligand binding at rat A3AR in CHO cell membranes using [76Br]4; conditions: for potency in binding to the rat A3AR: Figures 1A and 1B, [76Br]4 or [76Br]6 as radioligand; for Ki: read-out: Rat Ki, CHO cell membranes, radioligand [76Br]4 0.5 nM, 25°C 60 min
T1 sequence (P28647 1-320): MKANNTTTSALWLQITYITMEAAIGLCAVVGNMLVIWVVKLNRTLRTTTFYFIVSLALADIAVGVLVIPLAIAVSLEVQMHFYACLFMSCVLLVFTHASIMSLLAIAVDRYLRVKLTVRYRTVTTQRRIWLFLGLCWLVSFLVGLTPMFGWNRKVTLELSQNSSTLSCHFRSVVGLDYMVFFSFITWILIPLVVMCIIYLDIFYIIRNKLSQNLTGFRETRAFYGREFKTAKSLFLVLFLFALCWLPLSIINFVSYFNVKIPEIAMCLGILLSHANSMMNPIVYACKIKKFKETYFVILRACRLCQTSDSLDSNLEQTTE

[2] = molecular target: T1, rat A3AR
[3] = molecular target: T2, human A3AR (Homo sapiens, UniProt P0DMS8); conditions: read-out: Human Ki; CHO cell membranes, radioligand [76Br]MRS5147 6
T2 sequence (P0DMS8 1-318): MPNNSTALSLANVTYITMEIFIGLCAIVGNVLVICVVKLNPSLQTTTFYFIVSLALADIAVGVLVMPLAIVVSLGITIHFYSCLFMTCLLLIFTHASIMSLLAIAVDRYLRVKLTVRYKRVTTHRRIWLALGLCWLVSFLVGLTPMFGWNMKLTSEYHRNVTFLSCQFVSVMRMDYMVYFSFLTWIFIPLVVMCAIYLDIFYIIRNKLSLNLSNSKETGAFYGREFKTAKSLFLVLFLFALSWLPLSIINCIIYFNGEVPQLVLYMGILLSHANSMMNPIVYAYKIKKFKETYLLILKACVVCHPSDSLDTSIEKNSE

[4] = molecular target: T2, human A3AR; conditions: for potency at human versus rat A3AR: Figures 1A and 1B; for Ki: read-out: Human Ki, CHO cell membranes, radioligand [76Br]4 0.5 nM, 25°C 60 min
[5] = In vivo biodistribution study in rats; design: species or system rat; conditions: for uptake in testes over time: i.v., 15, 60 and 120 min post-injection
[6] = In vitro metabolism in human hepatocytes; assay type: in vitro ADME; conditions: 20 μg/mL, 37°C, up to 4 hours; only very small amounts of metabolites by LC/MS
[7] = test system: A3AR; experiment: In vitro tissue binding; conditions: rat whole brain and testes slices, with and without inhibitors, preliminary
[8] = In vitro metabolism in rat hepatocytes; assay type: in vitro ADME; conditions: 20 μg/mL, 37°C, up to 4 hours; only very small amounts of metabolites by LC/MS
[9] = molecular target: T2, human A3AR; conditions: cited from earlier work
[10] = read-out: Rat Ki, CHO cell membranes, radioligand [76Br]MRS5147 6

Row | Compound | potency in binding to the rat A3AR [1] | Ki [1] | Ki [2, 10] | potency at human versus rat A3AR [4] | Ki [4] | uptake in testes over time ([5]; rat) | also measured
1 | O=C(Cc1ccccc1)Nc1nc2ccc(Cl)cc2c2nc(-c3ccco3)nn12 [MRS1220, N-[9-chloro-2-(2-furanyl)[1,2, 4]triazolo[1,5-c]quinazolin-5-yl]benzeneacetamide] | ineffective | > 10000 nM | > 10000 nM |  |  |  | 
2 | CCCOC(=O)c1c(-c2ccccc2)nc(CC)c(C(=O)SCC)c1CCC [MRS1523, 3-propyl-6-ethyl-5-[(ethylthio)carbonyl]-2-phenyl-4-propyl-3-pyridine carboxylate, reference compound] | moderately potent | 939 ± 98 nM | 2830 ± 520 nM | more potent at the human A3AR | 125 ± 13 nM |  | Ki [3]: 120 ± 17 nM
3 | CNC(=O)[C@]12C[C@@H]1[C@@H](n1cnc3c(NCc4cccc([76Br])c4)nc(Cl)nc31)[C@H](O)[C@@H]2O [[^76Br]4, [^76Br](1′R,2′R,3′S,4′R,5′S)-4-{2-chloro-6-[(3-bromophenylmethyl)amino]purin-9-yl}-1-(methylaminocarbonyl)bicyclo[3.1.0]hexane-2,3-diol] |  |  |  |  |  |  | organs of primary uptake ([5]; i.v., Sprague-Dawley rats, 15-120 min): liver and kidneys; metabolic stability in human hepatocytes [6]: very stable; specific uptake of radioligand in tissue slices [7]: fail to show any specific uptake; metabolic stability in rat hepatocytes [8]: very stable
4 | O[C@@H]1[C@H](O)[C@@H]2C[C@@H]2[C@H]1n1cnc2c(NCc3cccc([76Br])c3)nc(Cl)nc21 [[^76Br]6, [^76Br](1R,2R,3S,4R,5S)-4-(6-(3-bromobenzylamino)-2-chloro-9H-purin-9-yl)bicyclo[3.1.0]hexane-2,3-diol] |  |  |  |  |  | continued to increase with time; also recorded: statistically increased relative to the 15 min time point | tissue uptake relative to agonist [76Br]4 ([5]; rat, i.v., %ID/g): an order of magnitude lower
5 | CNC(=O)[C@]12C[C@@H]1[C@@H](n1cnc3c(NCc4cccc(Br)c4)nc(Cl)nc31)[C@H](O)[C@@H]2O [compound 4, (1′R,2′R,3′S,4′R,5′S)-4-{2-chloro-6-[(3-bromophenylmethyl)amino]purin-9-yl}-1-(methylaminocarbonyl)bicyclo[3.1.0]hexane-2,3-diol] |  | 0.9 ± 0.07 nM |  | equally potent | 0.63 ± 0.05 nM |  | selectivity in comparison to other AR subtypes [9]: high selectivity; Ki ([9]; read-out: Ki value at the human A3AR, shown previously, listed as 4 (MRS3581)): 0.38 nM
6 | O[C@@H]1[C@H](O)[C@@H]2C[C@@H]2[C@H]1n1cnc2c(NCc3cccc(Br)c3)nc(Cl)nc21 [compound 6, (1R,2R,3S,4R,5S)-4-(6-(3-bromobenzylamino)-2-chloro-9H-purin-9-yl)bicyclo[3.1.0]hexane-2,3-diol] |  |  |  |  |  | increasing uptake in testes | Ki [2]: 5.2 ± 1.8 nM
